Results from patent publication US20060257489A1, “Fine particles, method and device for preparation thereof, and agent for parenteral injection and method for production thereof” (priority 2003, published 2006).

Tests used:
Format in all cases: physicochemical
[1] = observation of apparent dissolution in water after laser fine pulverization
Experimental: Subsequently, carbamazepine was suspended in water so that the concentration thereof was equal to 2 mg/ml, thereby preparing suspended liquid, and triple higher harmonics of YAG laser ([…], FWHM=4 ns, 20 Hz, irradiation time: 15 minutes) was irradiated to the suspended liquid.

[2] = absorbance characteristic before and after laser beam irradiation (photochemical reaction / degeneration)
Experimental: (§1) The absorbance characteristic of the solution was measured by using a general-purpose spectrophotometer (HITACHI U-3500). […] The optical path length was set to 10 mm for the measurement.

[3] = particle diameter estimated from the absorbance characteristic after fine pulverization; conditions: for particle diameter after fine pulverization treatment: 355 nm, 310 mJ/cm^2Pulse
Text: The measured value (R) of the absorbance measured by the general-purpose spectrophotometer contains the light absorption (A1) of finely-pulverized carbamazepine itself, the light scattering (S) and the light absorption (A2) of the added surfactant. A1 represents the fine pulverization state of carbamazepine, and it is estimated that the average particle diameter of carbamazepine is smaller as the light absorption is larger. Therefore, in order to estimate the particle diameter of carbamazepine after the treatment, with respect to the absorbance on the ordinate axis in FIG. 8, the increment (S) of the absorbance by the light scattering at each wavelength is approximated to the measured value (S1) of 500 nm at which carbamazepine has no absorption, and the measured value R of the absorbance is corrected to the absorbance A1 by using the operation of A1≈R−A2-S1.
The absorbance characteristic after the laser beam irradiation was measured in the same manner as example 3. In FIG. 9, the solid line represents the absorbance characteristic of the treatment target liquid using the surfactant liquid having the concentration of 1/1000, the one-dot-dashed line represents the absorbance characteristic of the treatment target liquid using the surfactant liquid having the concentration of 1/100, and the two-dot-dashed line represents the absorbance characteristic of the treatment target liquid using the surfactant liquid having the concentration of 1/10. The dashed line represents the absorbance characteristic of the treatment target liquid using no surfactant.

[4] = variation of the absorbance characteristic of the finely-pulverized solution with time lapse after laser beam irradiation (dispersion stability); conditions: finely-pulverized solution in water (355 nm, 380 mJ/cm^2Pulse, 15 minutes), after six days
Experimental: as §1
The absorbance characteristic indicated by the dashed line is the one before laser beam irradiation.

[5] = purity after fine pulverization treatment by HPLC, laser beam wavelength dependence; conditions: one hour
Experimental: In this example, fine pulverization of clobetasone butyrate as adrenal cortex hormone of hardly-soluble medicament was attempted. […] A stirring magnet stick for stirring the liquid was put in the square cell so that a laser beam was uniformly irradiated to the suspended liquid. The temperature of the suspended liquid was set to room temperature of 25° C. at all times except for a temperature dependence test.
In this example, a continuously wavelength-variable OPO parametric oscillator was used as a light source for fine pulverization because the wavelength dependence of the fine pulverization and photochemical reaction by laser beam irradiation was required to be investigated. The pulse width of the irradiation laser beam was set to FWHM 4 ns, and the repetition frequency was set to 10 Hz.
Subsequently, the irradiation wavelength of the laser beam was varied and the test was carried out.

Row | Compound | appearance of the solution after the laser beam irradiation ([1]; water, 355 nm, 380 mJ/cm^2Pulse) | degeneration after the treatment ([2]; 355 nm treatment, UV absorption curves just after the treatment and after six days) | photochemical reaction on laser beam irradiation ([2]; Kr-F laser 248 nm, otherwise as example 1) | degree of fine pulverization of the suspended liquid ([3]; 0.5 mg/ml in water, YAG pulse laser 1064 nm, 1700 mJ/cm^2 per pulse, one hour) | particle diameter after fine pulverization treatment ([3]; with added surfactant Tween20) | precipitation caused by the aggregation of fine particles [4] | purity after fine pulverization treatment (HPLC) ([5]; laser beam wavelength 500 nm or less) | purity after fine pulverization treatment (HPLC) ([5]; laser beam wavelength 500 to 800 nm) | dissolution when suspended in pure water ([1]; precipitate after laser treatment (355 nm, 430 mJ/cm^2Pulse, 15 minutes)) | dissolution when suspended in pure water ([1]; sample before the treatment) | photochemical reaction on laser beam irradiation ([2]; 1 mg/ml suspended in water, 355 nm, 310 mJ/cm^2Pulse, 15 minutes, with and without surfactant Tween20) | photochemical reaction on laser beam irradiation ([2]; 2 mg/ml suspended in water, 355 nm, 430 mJ/cm^2Pulse, 15 minutes) | particle diameter after fine pulverization treatment ([3]; 15 minutes, 1 mg/ml in water)
1 | CCCC(=O)O[C@]1(C(=O)CCl)[C@H](C)C[C@@H]2[C@@H]3CCC4=CC(=O)C=C[C@]4(C)[C@]3(F)C(=O)C[C@@]21C [clobetasone butyrate] | transparent | no degeneration occurred | some photochemical reaction occurs | sub-micrometer order | sub-micron or less | rarely observed | degradation is also small | great degradation of the purity |  |  |  |  | 
2 | NC(=O)N1c2ccccc2C=Cc2ccccc21 [carbamazepine] |  |  |  |  |  |  |  |  | instantaneously dissolved | hardly dissolved | no photochemical reaction is induced | little photochemical reaction occurred | sub-micron or less
